Several values for one entry are separate records, joined by “and”; a condition that tells them apart may be missing. Equal entries are not always repeated. Entries after “also recorded” stand apart in the source; their conditions may differ.
Tests used:
dorsal horn neurones = test: whole-cell patch clamp recording in spinal cord slices from Chung models of neuropathic pain: membrane properties of dorsal horn neurones; type: cell-based, rat; settings: for Membrane Potential, mean in presence of peptide: ipsilateral to injury; for Normalised Input Resistance, mean in presence of peptide / Normalised Input Resistance, ΔIR: control = 100; for reversal potential of peptide-induced response (intersection of VI relations): individual neurones; for Normalised Membrane Potential, mean in presence of peptide / Normalised Membrane Potential, ΔVm: rest = 100
Text: (§1) An in vitro spinal cord slice with intact dorsal root afferents combined with single-cell whole-cell patch clamp electrophysiological recording techniques was used to assess the electrophysiological properties of the peptides having the amino acid sequence of SEQ ID NO:2, 3, 4 and 5.
The spinal nerve ligation model (Chung model) was first reported by Kim and Chung (1992; Pain, 50(3):355-63) and involves a single tight ligation of the L5 spinal nerve. […] This model has been used as a “gold standard” model for assessing the efficacy of novel compounds targeting neuropathic pain.
Adult male Sprague-Dawley rats, 8-9 weeks old, weighing 220-250 g at the time of surgery, were purchased from Charles River UK Ltd. The animals were housed in groups of 4 in an air-conditioned room on a 12-hour light/dark cycle. Food and water were available ad libitum. They were allowed to acclimatise to the experimental environment for three days by leaving them on a raised metal mesh for at least 40 min. The baseline paw withdrawal threshold (PWT) was examined using a series of graduated von Frey hairs for 3 consecutive days before surgery and re-assessed on the 6th to 8th day after surgery and on the 12th to 14th day after surgery before drug dosing. Each rat was anaesthetized with 5% isoflurane mixed with oxygen (2L per min) followed by an intramuscular (i.m.) injection of ketamine 90 mg/kg plus xylazine 10 mg/kg. The back was shaved and sterilized with povidone-iodine. The animal was placed in a prone position and a para-medial incision was made on the skin covering the L4-6 level. The L5 spinal nerve was carefully isolated and tightly ligated with 6/0 silk suture. The wound was then closed in layers after a complete hemostasis. A single dose of antibiotics (Amoxipen, 15 mg/rat, i.p.) was routinely given for prevention of infection after surgery. The animals were placed in a temperature-controlled recovery chamber until fully awake before being returned to their home cages.
(§2) Chung model rats, aged 8 to 12 weeks, were housed in an air-conditioned room on a 12 hour light/dark cycle with food and water available ad libitum. The rats were terminally anaesthetized using isofluorane and decapitated. The vertebral column, rib cage and surrounding tissues were rapidly removed and pinned under ice-cold (<4° C.), high sucrose-containing artificial cerebrospinal fluid (aCSF) comprising: 127 mM sucrose, 1.9 mM KCl, 1.2 mM KH2PO4, 0.24 mM CaCl2, 3.9 mM MgCl2, 26 mM NaHCO3, 10 mM D-glucose and 0.5 mM ascorbic acid. A laminectomy was performed and the spinal cord and associated roots gently dissected and teased out of the spinal column and surrounding tissues. Dura and pia mater and ventral roots were subsequently removed with fine forceps and the spinal cord hemisected. Care was taken to ensure dorsal root inputs to the spinal cord were maintained. The hemisected spinal cord-dorsal root preparations were secured to a tissue slicer and spinal cord slices (400 to 450 μm thick) with dorsal roots attached were cut in chilled (<4° C.) high sucrose aCSF using a Leica VT1000s microtome.
(§3) Slices were transferred to a small beaker containing ice cold aCSF with 127 mM NaCl, 1.9 mM KCl, 1.2 mM KH2PO4, 1.3 mM MgCl2, 2.4 mM CaCl2, 26 mM NaHCO3 and 10 mM D-glucose, and rapidly warmed to 35° C. ±1° C. in a temperature-controlled water bath over a 20 minute period, then subsequently removed and maintained at room temperature (22° C. ±2° C.) prior to electrophysiological recording. Electrophysiological recording was performed in aCSF comprising 127 mM NaCl, 1.9 mM KCl, 1.2 mM KH2PO4, 1.3 mM MgCl2, 2.4 mM CaCl2, 26 mM NaHCO3 and 10 mM D-glucose.
Whole-cell recordings were performed at 34-35° C. from Lamina I or II neurones in the dorsal horn of the spinal cord slices using Axopatch 1D and/or Multiclamp 700B amplifies and using the “blind” version of the patch-clamp technique. […]

[1] = tested on: dorsal root afferent-mediated synaptic inputs to dorsal horn neurones; test: whole-cell recording in spinal cord slices from Chung models: dorsal root afferent-mediated synaptic inputs (evoked EPSPs/IPSPs); type: cell-based, rat; settings: for effect on dorsal root-evoked EPSPs / excitatory synaptic transmission (in words) / effect on dorsal root-evoked IPSPs / inhibitory synaptic transmission (in words): peptide 5 μM, dorsal root stimulation 0.1 Hz
Procedure: as §1, §2, §3
Whole-cell recordings were performed at 34-35° C. from Lamina I or II neurones in the dorsal horn of the spinal cord slices using Axopatch 1D and/or Multiclamp 700B amplifies and using the “blind” version of the patch-clamp technique.
Patch pipettes were pulled from thin-walled borosilicate glass with resistances of between 3 and 8 MS2 when filled with intracellular solution (140 mM potassium gluconate, 10 mM KCl, 1 mM EGTA-Na, 10 mM HEPES, 4 mM Na2ATP, 0.3 mM Na-GTP). The peptides of SEQ ID NOs:2, 3, 4 or 5 (LAT7771, LAT7772, LAT7773 or LAT7774) were diluted in the tissue bath at a concentration of 5 μM.
A concentric bipolar stimulating electrode was placed appropriately either on the dorsal root or dorsal root entry zone to evoke postsynaptic potentials/currents in recorded cells (see FIG. 1). […] EPSPs/EPSCs were confirmed as monosynaptic on the basis of being characterised by a constant latency and rise-time with few failures.
Recordings were monitored on an oscilloscope and stored on digital audio tapes for later off-line analysis. In addition, data were low-pass filtered at 2-5 kHz, (1 kHz for voltage-clamp data), digitized at 2-10 kHz and stored on a PC running pCLAMP 10 data acquisition software (Axon Instruments). Analysis of electrophysiological data was carried out using Clampfit 10 software.

[2] = solubility in distilled water
[3] = tested on: Chung model of neuropathic pain; test: paw withdrawal threshold (von Frey) in Chung model of neuropathic pain, oral or intramuscular administration; type: in vivo, rat; settings: for paw withdrawal threshold (PWT) / reversal of mechanical allodynia: 2 hours after administration, ipsilateral side
Text: Chung model of neuropathic pain was used to compare the in vivo efficacy of LAT8881 and LAT7771 administered orally or intramuscularly.
The spinal nerve ligation model (Chung model) was first reported by Kim and Chung (1992; Pain, 50(3):355-63) and involves a single tight ligation of the L5 spinal nerve. […] This model has been used as a “gold standard' model for assessing the efficacy of novel compounds targeting neuropathic pain.
Adult male Sprague-Dawley rats, 8-9 weeks old, weighing 220-250 g at the time of surgery, were anaesthetised with 3% isoflurane mixed with oxygen followed by an intramuscular injection of a mixture of ketamine and xylazine. The back was shaved and sterilised with povidone-iodine soaked cotton balls. The L5 spinal nerve was carefully isolated and tightly located with 6/0 silk suture and the wound was closed in layers. The single-dose antibiotics (Amoxipen, 100 mg/kg, i.p.) was routinely given for prevention of infection after surgery.
The animals were placed in individual Perspex boxes on a raised metal mesh for at least 40 minutes. Starting with the filament of lowest force (1 g), each filament was applied perpendicularly to the centre of the ventral surface of the paw until slightly bent for 6 seconds. If the animal withdrew or lifted its paw upon stimulation, a von Frey hair with force immediately lower than that tested was subsequently used. If no response was observed, then a hair with force immediately higher was tested. The lowest amount of force required to induce reliable responses (positive in 2 out of 3 trials) was recorded as the value of […] (PWT).
PWT was assessed once daily for three days before surgery and once a week for monitoring the development of mechanical allodynia.
All drug tests were carried out on the 13th to 17th day after surgery. All drug dosing was ‘blindly’ carried out by a second experimenter. The test compounds were administered and PWT was assessed before and 2 hours following drug or vehicle (5% DMSO) administration.

Sequence | effect on inward rectification (in words) (dorsal horn neurones; peptide 5 μM) | effect on membrane potential / postsynaptic membrane properties (in words) (dorsal horn neurones; peptide 5 μM) | Input Resistance, mean in presence of peptide (dorsal horn neurones; peptide 5 μM, all cells) | Membrane Potential, mean in presence of peptide (dorsal horn neurones; peptide 5 μM, all cells) | Normalised Input Resistance, mean in presence of peptide (dorsal horn neurones; peptide 5 μM) | Normalised Input Resistance, ΔIR (dorsal horn neurones; peptide 5 μM) | reversal potential of peptide-induced response (intersection of VI relations) (dorsal horn neurones; peptide 5 μM) | Normalised Membrane Potential, mean in presence of peptide (dorsal horn neurones; peptide 5 μM) | Normalised Membrane Potential, ΔVm (dorsal horn neurones; peptide 5 μM) | effect on dorsal root-evoked EPSPs / excitatory synaptic transmission (in words) [1] | solubility in distilled water [2] | effect on neuronal input resistance (in words) (dorsal horn neurones; peptide 5 μM) | effect on dorsal root-evoked IPSPs / inhibitory synaptic transmission (in words) [1] | further results
CRIVYDSNCG [LAT7774] | changes in inward rectification | little effect on a further 2 dorsal horn neurones; also recorded: hyperpolarisation; also recorded: depolarisation | 294.0±62.2 MΩ and 294.0 MΩ | −59.8±3.6 mV and −59.8 mV | 121.2 | −21.2 | around −100 mV and ~−65 mV and around −80 mV and ~−85 mV and around −95 mV and around −55 mV and around −85 mV | 100.9 | −0.9 | no effect on dorsal root evoked (0.1 Hz) EPSPs in 4 neurones; also recorded: minor reduction in two; also recorded: increased EPSPs in one; also recorded: both facilitating and inhibiting these inputs; also recorded: small decrease in EPSPs; also recorded: lack of effect; also recorded: increase in EPSPs | soluble |  |  | 
CRIIHNNNC [LAT7771, C-terminal fragment of human prolactin spanning residues 219-227 of human prolactin precursor] | enhancement or increase in the strength of inward rectification; also recorded: enhanced inward rectification | little effect on a further 3 dorsal horn neurones; also recorded: principally induced membrane depolarisation; also recorded: membrane depolarisation and an increase in spontaneous firing; also recorded: minimal membrane depolarisation; also recorded: little or no effect on postsynaptic properties | 447.6 MΩ | −53.8±2.8 mV and −53.8 mV | 94.8 | 5.2 | −55 mV (2×) and −45 mV and −40 mV | 94.8 | 5.2 | In four neurones, dorsal root evoked EPSPs at a frequency of 0.1 Hz were reduced; also recorded: consistently reduced dorsal root-evoked EPSPs; also recorded: EPSPs were suppressed |  | little change in neuronal input resistance; also recorded: marginal increase in neuronal input resistance | In two of these neurones, suppression of EPSPs uncovered or activated IPSPs; also recorded: in two neurones promoted inhibitory synaptic transmission; also recorded: enhanced inhibitory synaptic transmission | change in neuronal input resistance (dorsal horn neurones; peptide 5 μM vs control): 15.8 ± 36.1 MΩ; ΔIR, change in neuronal input resistance (dorsal horn neurones; peptide 5 μM vs control, table prints control minus drug, text the magnitude): −15.8 MΩ; neuronal input resistance in the presence of peptide (dorsal horn neurones; peptide 5 μM, all cells): 447.6±119.4 MS2; effect on dorsal root-evoked IPSPs (in words) ([1]; prolactin 500 nM, 0.1 Hz and 5 Hz): lack of effect; paw withdrawal threshold (PWT) / reversal of mechanical allodynia ([3]; 10 mg/kg intramuscularly (IM)): significantly increased the PWT; paw withdrawal threshold (PWT) / reversal of mechanical allodynia ([3]; 10 mg/kg orally (PO)): significantly increased the PWT; analgesic properties in vivo ([3]; compared with LAT8881): comparable to that of LAT8881
CRIVYDSNC [LAT7773] | enhancing inward rectification; also recorded: enhanced inward rectification |  | 373.5±103.6 MΩ and 373.5 MΩ | −50.3±3.0 mV and −50.3 mV | 99.9 | 0.1 | no clear reversal potential in 7 neurones; also recorded: around −93 mV; also recorded: around −92 mV | 88.4 | 11.6 | In three neurones electrical stimulation of dorsal roots (0.1 Hz) evoked EPSPs that were suppressed; also recorded: In two other neurones EPSPs, and in one of these IPSPs, were enhanced; also recorded: remaining two neurones showed no change; also recorded: in some neurones depressed whilst in others they were clearly potentiated; also recorded: reducing dorsal root afferent-mediated synaptic inputs; also recorded: little effect on dorsal root afferent-mediated excitatory synaptic transmission; also recorded: increase in dorsal root afferent-mediated synaptic transmission | soluble | variable effects on input resistance inducing a decrease in 4 neurones and an increase in 5 neurones; also recorded: small increase in neuronal input resistance | in one of these IPSPs, were enhanced; also recorded: both EPSPs and IPSPs were enhanced | membrane hyperpolarisation in individual neurones (dorsal horn neurones; peptide 5 μM, responding neurones): 7.6 mV

Reference: patent publication US20220354929A1, “PEPTIDES AND USES THEREOF” (LATERAL IP PTY LTD, priority 2019, published 2022)
